Converted amounts (≈) assume the structure as drawn.
Assays:
[1] = Inhibition of His-Glu tagged recombinant human KIT Q694-T753 deletion mutant (565 to 935 residues) measured by spectrophotometric analysis
NFS-60 = assay: cells; conditions: Mus musculus, NFS-60, 72 h
Description: Antiproliferative activity against CSF1-treated mouse NFS-60 cells measured after 72 hrs by resazurin method

cells [2] = conditions: Homo sapiens, Osteoclast
Description: Inhibition of RANKL-induced human osteoclast precursor cells differentiation in presence of human CSF1 and measured by tartrate-resistant acid phosphatase activity assay

cells [3] = conditions: Homo sapiens
Description: Inhibition of ABL (unknown origin) in presence of 4 mM ATP measured by cell-based spectrophotometric assay

[4] = Cmax in dog at 10 mg/kg, po; assay type: ADME, organism-based, Canis lupus familiaris; parameters: dose 10 mg/kg, route po; conditions: in vivo
[5] = Metabolic stability in dog liver microsomes assessed as compound remaining at 60 mins; assay type: ADME, Canis lupus familiaris, Microsome; conditions: read-out: Stability
[6] = AUC (0 to 24 hrs) in rat at 10 mg/kg, po; assay type: ADME, organism-based; parameters: time < 24 hr, dose 10 mg/kg, route po; conditions: in vivo
[7] = In vivo inhibition of CSF1R in CSF1-stimulated DBA/1 mouse assessed as modulation of cFOS mRNA at 7.5 mg/kg, po administered once daily for 6 days followed by CSF1 administration through intravenously and measured at 4 hrs by RT-PCR method; assay type: functional; conditions: DBA/1, 144 h, time 6 day
[8] = Permeability across apical to basolateral side in human Caco-2 cells; assay type: ADME, cell-based; conditions: read-out: permeability
[9] = Plasma concentration in DBA/1 mouse at 7.5 mg/kg, po administered once daily for 6 days and measured at 2 hrs; assay type: ADME, organism-based; conditions: time 6 day
[10] = Metabolic stability in rat liver microsomes assessed as compound remaining at 60 mins; assay type: ADME, Microsome; conditions: read-out: Stability
[11] = In vivo inhibition of CSF1R in CSF1-stimulated DBA/1 mouse assessed as modulation of cFOS mRNA at 7.5 mg/kg, po administered once daily for 6 days followed by CSF1 administration through intravenously and measured at 8 hrs by RT-PCR method; assay type: functional; conditions: DBA/1, 144 h, time 6 day
[12] = Plasma concentration in DBA/1 mouse at 7.5 mg/kg, po administered once daily for 6 days and measured at 8 hrs; assay type: ADME, organism-based; conditions: time 6 day
[13] = In vivo inhibition of CSF1R in CSF1-stimulated DBA/1 mouse assessed as modulation of cFOS mRNA at 7.5 mg/kg, po administered once daily for 6 days followed by CSF1 administration through intravenously and measured at 12 hrs by RT-PCR method; assay type: functional; conditions: DBA/1, 144 h, time 6 day
[14] = target: Mast/stem cell growth factor receptor Kit (Homo sapiens, UniProt P10721); assay: Inhibition of KIT (unknown origin) in presence of 4 mM ATP measured by cell-based spectrophotometric assay
Sequence of Mast/stem cell growth factor receptor Kit (P10721 whole entry): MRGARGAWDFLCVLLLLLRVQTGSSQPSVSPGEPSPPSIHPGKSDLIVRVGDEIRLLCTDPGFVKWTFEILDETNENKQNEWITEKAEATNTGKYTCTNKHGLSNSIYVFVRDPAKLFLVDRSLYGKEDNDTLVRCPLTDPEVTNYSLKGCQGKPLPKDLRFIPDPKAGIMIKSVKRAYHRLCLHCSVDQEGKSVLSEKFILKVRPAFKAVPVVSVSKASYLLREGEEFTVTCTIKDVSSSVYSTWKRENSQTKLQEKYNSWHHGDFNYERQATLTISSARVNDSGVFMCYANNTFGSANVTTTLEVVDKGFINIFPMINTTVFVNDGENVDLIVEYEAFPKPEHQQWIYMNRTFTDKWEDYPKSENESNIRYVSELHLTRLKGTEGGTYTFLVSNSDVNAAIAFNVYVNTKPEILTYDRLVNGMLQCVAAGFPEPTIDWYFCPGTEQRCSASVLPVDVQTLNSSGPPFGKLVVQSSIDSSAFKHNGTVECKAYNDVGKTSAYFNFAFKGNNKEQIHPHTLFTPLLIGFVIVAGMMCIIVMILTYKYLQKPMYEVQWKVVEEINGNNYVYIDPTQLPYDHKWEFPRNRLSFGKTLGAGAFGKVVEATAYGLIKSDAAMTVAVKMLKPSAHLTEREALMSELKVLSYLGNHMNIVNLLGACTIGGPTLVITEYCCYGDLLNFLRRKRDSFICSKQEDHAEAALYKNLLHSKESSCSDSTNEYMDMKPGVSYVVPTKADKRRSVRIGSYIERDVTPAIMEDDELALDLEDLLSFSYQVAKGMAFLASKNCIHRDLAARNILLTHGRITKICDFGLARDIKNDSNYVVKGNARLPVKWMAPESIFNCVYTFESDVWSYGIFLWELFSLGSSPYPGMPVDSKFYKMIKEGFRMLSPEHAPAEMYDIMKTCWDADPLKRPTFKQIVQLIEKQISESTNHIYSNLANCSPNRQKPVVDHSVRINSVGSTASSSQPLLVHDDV

[15] = Metabolic stability in mouse liver microsomes assessed as compound remaining at 60 mins; assay type: ADME, Microsome; conditions: read-out: Stability
[16] = In vivo inhibition of CSF1R in CSF1-stimulated DBA/1 mouse assessed as modulation of cFOS mRNA at 7.5 mg/kg, po administered once daily for 6 days followed by CSF1 administration through intravenously and measured at 18 hrs by RT-PCR method; assay type: functional; conditions: DBA/1, 144 h, time 6 day
[17] = Half-life in rat at 10 mg/kg, po; assay type: ADME, organism-based; conditions: in vivo
[18] = Plasma concentration in DBA/1 mouse at 7.5 mg/kg, po administered once daily for 6 days and measured at 4 hrs; assay type: ADME, organism-based; conditions: time 6 day
[19] = Plasma concentration in DBA/1 mouse at 7.5 mg/kg, po administered once daily for 6 days and measured at 24 hrs; assay type: ADME, organism-based; conditions: time 6 day
[20] = Plasma protein binding in dog; assay type: ADME, cell-free, Canis lupus familiaris; conditions: read-out: PPB (converted)
[21] = Tmax in rat at 10 mg/kg, po; assay type: ADME, organism-based; conditions: in vivo
[22] = Cmax in rat at 10 mg/kg, po; assay type: ADME, organism-based; parameters: dose 10 mg/kg, route po; conditions: in vivo
[23] = Metabolic stability in human liver microsomes assessed as compound remaining at 60 mins; assay type: ADME, Microsome; conditions: read-out: Stability
[24] = Plasma protein binding in human; assay type: ADME, cell-free; conditions: read-out: PPB (converted)
[25] = Clearance in dog at 10 mg/kg, po; assay type: ADME, organism-based, Canis lupus familiaris; conditions: in vivo
[26] = Plasma concentration in DBA/1 mouse at 7.5 mg/kg, po administered once daily for 6 days and measured at 6 hrs; assay type: ADME, organism-based; conditions: time 6 day
[27] = Tmax in dog at 10 mg/kg, po; assay type: ADME, organism-based, Canis lupus familiaris; conditions: in vivo
[28] = Volume of distribution in dog at 10 mg/kg, po; assay type: ADME, organism-based, Canis lupus familiaris; conditions: in vivo
[29] = Clearance in rat at 10 mg/kg, po; assay type: ADME, organism-based; conditions: in vivo
hERG (KCNH2) = hERG (KCNH2) (Homo sapiens, UniProt Q12809); assay: Inhibition of hERG measured by fluorescence polarization assay; assay type: toxicity
Sequence of hERG (KCNH2) (Q12809 whole entry): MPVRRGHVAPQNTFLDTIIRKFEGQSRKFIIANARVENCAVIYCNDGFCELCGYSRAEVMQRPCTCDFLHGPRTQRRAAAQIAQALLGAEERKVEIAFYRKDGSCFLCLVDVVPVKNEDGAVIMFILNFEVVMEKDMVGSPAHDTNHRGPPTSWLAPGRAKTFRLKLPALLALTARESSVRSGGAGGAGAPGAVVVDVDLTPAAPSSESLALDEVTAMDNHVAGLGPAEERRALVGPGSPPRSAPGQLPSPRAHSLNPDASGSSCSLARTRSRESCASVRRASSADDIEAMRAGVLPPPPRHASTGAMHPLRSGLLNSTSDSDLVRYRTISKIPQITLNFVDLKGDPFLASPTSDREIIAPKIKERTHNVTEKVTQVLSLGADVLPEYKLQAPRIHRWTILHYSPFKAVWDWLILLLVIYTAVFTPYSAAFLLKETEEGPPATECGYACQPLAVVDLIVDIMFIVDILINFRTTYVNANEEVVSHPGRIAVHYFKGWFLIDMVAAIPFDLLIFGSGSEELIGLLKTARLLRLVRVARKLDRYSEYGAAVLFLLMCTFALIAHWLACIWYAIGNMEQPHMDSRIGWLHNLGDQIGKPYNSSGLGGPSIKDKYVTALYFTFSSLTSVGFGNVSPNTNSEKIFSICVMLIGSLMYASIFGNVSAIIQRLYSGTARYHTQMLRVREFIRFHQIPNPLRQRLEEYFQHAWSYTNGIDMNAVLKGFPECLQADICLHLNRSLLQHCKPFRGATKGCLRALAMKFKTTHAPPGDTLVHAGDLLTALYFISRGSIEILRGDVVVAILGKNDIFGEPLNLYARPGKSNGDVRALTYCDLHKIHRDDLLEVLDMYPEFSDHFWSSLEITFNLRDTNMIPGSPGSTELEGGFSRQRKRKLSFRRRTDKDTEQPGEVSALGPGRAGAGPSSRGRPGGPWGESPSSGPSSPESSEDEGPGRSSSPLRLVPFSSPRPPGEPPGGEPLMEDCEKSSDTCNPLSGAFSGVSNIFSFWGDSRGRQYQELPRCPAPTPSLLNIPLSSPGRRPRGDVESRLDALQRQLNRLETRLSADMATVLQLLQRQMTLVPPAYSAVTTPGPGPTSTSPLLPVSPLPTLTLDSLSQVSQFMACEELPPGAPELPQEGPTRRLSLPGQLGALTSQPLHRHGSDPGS

[30] = Oral bioavailability in rat at 10 mg/kg; assay type: ADME, organism-based; conditions: in vivo
[31] = Plasma concentration in DBA/1 mouse at 7.5 mg/kg, po administered once daily for 6 days and measured at 12 hrs; assay type: ADME, organism-based; conditions: time 6 day
[32] = In vivo inhibition of CSF1R in CSF1-stimulated DBA/1 mouse assessed as modulation of cFOS mRNA at 7.5 mg/kg, po administered once daily for 6 days followed by CSF1 administration through intravenously and measured at 6 hrs by RT-PCR method; assay type: functional; conditions: DBA/1, 144 h, time 6 day
[33] = In vivo inhibition of CSF1R in CSF1-stimulated DBA/1 mouse assessed as modulation of cFOS mRNA at 7.5 mg/kg, po administered once daily for 6 days followed by CSF1 administration through intravenously and measured at 24 hrs by RT-PCR method; assay type: functional; conditions: DBA/1, 144 h, time 6 day
[34] = Plasma protein binding in rat; assay type: ADME, cell-free; conditions: read-out: PPB (converted)
[35] = Oral bioavailability in dog at 10 mg/kg; assay type: ADME, organism-based, Canis lupus familiaris; conditions: in vivo
[36] = In vivo inhibition of CSF1R in CSF1-stimulated DBA/1 mouse assessed as modulation of cFOS mRNA at 7.5 mg/kg, po administered once daily for 6 days followed by CSF1 administration through intravenously and measured at 2 hrs by RT-PCR method; assay type: functional; conditions: DBA/1, 144 h, time 6 day
[37] = Half-life in dog at 10 mg/kg, po; assay type: ADME, organism-based, Canis lupus familiaris; conditions: in vivo
[38] = Volume of distribution in rat at 10 mg/kg, po; assay type: ADME, organism-based; conditions: in vivo
[39] = Plasma protein binding in mouse; assay type: ADME, cell-free; conditions: read-out: PPB (converted)
[40] = AUC (0 to 24 hrs) in dog at 10 mg/kg, po; assay type: ADME, organism-based, Canis lupus familiaris; parameters: time < 24 hr, dose 10 mg/kg, route po; conditions: in vivo
[41] = Plasma concentration in DBA/1 mouse at 7.5 mg/kg, po administered once daily for 6 days and measured at 18 hrs; assay type: ADME, organism-based; conditions: time 6 day
[42] = Aqueous solubility of compound at pH 7.4; assay type: physicochemical

## Cc1nc(-c2cnc(N3CCOCC3)[nH]c2=O)ccc1Oc1ccnc(-c2cnn(C)c2)c1
[1]
  IC50: > 3300 nM
NFS-60
  IC50: 494 nM

## CNC(=O)c1cc(Oc2ccc(-c3cnc(NC(C)C)[nH]c3=O)nc2)ccn1
[1]
  IC50: 7400 nM
NFS-60
  IC50: 127 nM

## Cc1cc(-c2cnc(N3CCCC3)[nH]c2=O)ncc1Oc1ccnc(-c2cnn(C)c2)c1
[1]
  IC50: 473 nM
NFS-60
  IC50: 16 nM

## Cc1nc(-c2cnc(N3CCCCC3)[nH]c2=O)ccc1Oc1ccnc(-c2cnn(C)c2)c1
[1]
  IC50: > 3300 nM
NFS-60
  IC50: 30 nM

## CN(C)CC(=O)N1CCC(c2ccc(NC(=O)c3nc(C#N)c[nH]3)c(C3=CCCCC3)c2)CC1
Cells [2]
  IC50: 1.7 nM

## Cc1nc(-c2cnc(NC3CCCC3)[nH]c2=O)ccc1Oc1ccnc(-c2cnn(C)c2)c1
[1]
  IC50: 990 nM
NFS-60
  IC50: 2.6 nM

## Cc1nc(-c2cnc(NC(C)C)n(C)c2=O)ccc1Oc1ccnc(-c2cnn(C)c2)c1 [VIMSELTINIB]
Cells [3]
  IC50: 2900 nM
[4]
  Cmax: 1010 nM
[1]
  IC50: 476 nM
[5]
  remaining at 1 h: 95.2%
[6]
  AUC: 38.009 µM·h
[7]
  inhibition in vivo at 7.5 mg/kg: 93%
[8]
  Papp A→B: 16 ×10⁻⁶ cm/s
[9]
  concentration at 144 h: 4450 ng/mL
[10]
  remaining at 1 h: 95.2%
[11]
  inhibition in vivo at 7.5 mg/kg: 92%
[12]
  concentration at 144 h: 3030 ng/mL
[13]
  inhibition in vivo at 7.5 mg/kg: 90%
[14]
  IC50: 1600 nM
[15]
  remaining at 1 h: 94.8%
[16]
  inhibition in vivo at 7.5 mg/kg: 89%
[17]
  t1/2: 19.8 h
[18]
  concentration at 144 h: 4260 ng/mL
[19]
  concentration at 144 h: 1380 ng/mL
[20]
  fraction unbound: 0.033
[21]
  Tmax: 2.67 h
[22]
  Cmax: 3740 nM
[23]
  remaining at 1 h: 100%
[24]
  fraction unbound: 0.033
[25]
  CL: 2.5 mL/min/kg
[26]
  concentration at 144 h: 2360 ng/mL
[27]
  Tmax: 1.67 h
[28]
  Vd: 1.33 L/kg
[29]
  CL: 0.5 mL/min/kg
hERG (KCNH2)
  IC20: 20000 nM
[30]
  bioavailability: 76%
[31]
  concentration at 144 h: 1970 ng/mL
[32]
  inhibition in vivo at 7.5 mg/kg: 88%
[33]
  inhibition in vivo at 7.5 mg/kg: 79%
[34]
  fraction unbound: 0.006
[35]
  bioavailability: 33%
[36]
  inhibition in vivo at 7.5 mg/kg: 84%
[37]
  half-life: 10.6 h
NFS-60
  IC50: 18 nM
[38]
  Vd: 0.69 L/kg
[39]
  fraction unbound: 0.026
[40]
  AUC: 5.432 µM·h
[41]
  concentration at 144 h: 1310 ng/mL
Cells [2]
  IC50: 9.3 nM
[42]
  solubility: 200 µM (≈ 86.3 µg/mL)

## CCNc1ncc(-c2ccc(Oc3ccnc(-c4ccc(C)nc4)c3)c(C)n2)c(=O)[nH]1
[1]
  IC50: 1500 nM
NFS-60
  IC50: 1200 nM

## Cc1nc(-c2cnc(NC3CCOCC3)[nH]c2=O)ccc1Oc1ccnc(-c2cnn(C)c2)c1
[1]
  IC50: 3200 nM
NFS-60
  IC50: 413 nM

## Cc1nc(-c2cnc(N3CCCC3)[nH]c2=O)ccc1Oc1ccnc(-c2cnn(C)c2)c1
[1]
  IC50: > 3300 nM
NFS-60
  IC50: 56 nM

— ChEMBL document CHEMBL5104170, “Discovery of vimseltinib (DCC-3014), a highly selective CSF1R switch-control kinase inhibitor, in clinical development for the treatment of Tenosynovial Giant Cell Tumor (TGCT)” (Bioorg Med Chem Lett, 2022)
